These compounds were tested on Human rhinovirus sp. (assay: Antiviral activity against rhinoviral-1B serotype in a plaque inhibition assay using monolayers of M-HeLa cells).
Format: functional, organism-based
With `CN(C)c1nc(C(F)(F)F)nc2c1ncn2Cc1ccc(CN)cc1` the IC50 was 200 nM.
Work on `COc1cc(Cn2cnc3c(N(C)C)nc(C(F)(F)F)nc32)ccc1C` yielded an IC50 greater than 1000 nM.
Work on `CN(C)c1cc(Cl)ccc1Cn1cnc2c(N(C)C)nc(C(F)(F)F)nc21` yielded an IC50 of 180000 nM.
With `CN(C)c1nc(C(F)(F)F)nc2c1ncn2Cc1cccc(Br)c1` the IC50 was 60 nM.
Work on `CN(C)c1nc(C(F)(F)F)nc2c1ncn2Cc1cccc(NC=O)c1` yielded an IC50 of 740 nM.
Work on `CN(C)c1nc(C(F)(F)F)nc2c1ncn2Cc1cccc(C(=O)O)c1` yielded an IC50 of 4600 nM.
In the case of `COc1ccccc1Cn1cnc2c(N(C)C)nc(C(F)(F)F)nc21`, the IC50 is reported as 5600 nM.
Compound `CN(C)c1nc(C(F)(F)F)nc2c1ncn2Cc1ccc(Cl)cc1N` has an IC50 of 470 nM.
With `CCOC(=O)c1ccc(Cn2cnc3c(N(C)C)nc(C(F)(F)F)nc32)cc1` the IC50 was 5000 nM.
With `CN(C)c1nc(C(F)(F)F)nc2c1ncn2Cc1ccccc1F` the IC50 was 150 nM.
Work on `CC(=O)Nc1ccc(Cn2cnc3c(N(C)C)nc(C(F)(F)F)nc32)cc1` yielded an IC50 of 370 nM.
In the case of `CN(C)c1nc(C(F)(F)F)nc2c1ncn2Cc1ccc(C(=O)O)cc1`, the IC50 is reported as 4600 nM.
With `COc1cccc(Cn2cnc3c(N(C)C)nc(C(F)(F)F)nc32)c1` the IC50 was 100 nM.
`CN(C)c1nc(C(F)(F)F)nc2c1ncn2Cc1cccc([N+](=O)[O-])c1` gave an IC50 of 130 nM.
Compound `CN(C)c1nc(C(F)(F)F)nc2c1ncn2Cc1cccc(O)c1` has an IC50 of 950 nM.
`COC(=O)c1cccc(Cn2cnc3c(N(C)C)nc(C(F)(F)F)nc32)c1` showed an IC50 of 2600 nM.
`CCCCOc1ccc(Cn2cnc3c(N(C)C)nc(C(F)(F)F)nc32)cc1` showed an IC50 of 2100 nM.
`CN(C)c1nc(C(F)(F)F)nc2c1ncn2Cc1ccccc1[N+](=O)[O-]` showed an IC50 of 280000 nM.
Work on `CN(C)c1nc(C(F)(F)F)nc2c1ncn2Cc1ccc(CO)cc1` yielded an IC50 of 200 nM.
For `CN(C)c1nc(C(F)(F)F)nc2c1ncn2Cc1ccc(O)cc1`, the IC50 was 170 nM.
`COc1cc(Cl)ccc1Cn1cnc2c(N(C)C)nc(C(F)(F)F)nc21` was tested, and the IC50 was 135000 nM.
Work on `CN(C)c1nc(C(F)(F)F)nc2c1ncn2Cc1ccccc1N` yielded an IC50 of 1700 nM.
`CN(C)c1nc(C(F)(F)F)nc2c1ncn2Cc1ccc(Cl)cc1[N+](=O)[O-]` was tested, and the IC50 was 530 nM.

Reference: ChEMBL document CHEMBL1124634, “Synthesis and antirhinovirus activity of 6-(dimethylamino)-2-(trifluoromethyl)-9-(substituted benzyl)-9H-purines” (J Med Chem, 1989)
